Read-outs that look alike come from different tables or passages of the source.

One data set has as its target T1, CXCR3 (Homo sapiens, UniProt P49682).
T1 construct: host or cells: CHO-K1 (cAMP Hunter CHOK1 CXCR3 Gi cell line)
T1 sequence (P49682 1-368): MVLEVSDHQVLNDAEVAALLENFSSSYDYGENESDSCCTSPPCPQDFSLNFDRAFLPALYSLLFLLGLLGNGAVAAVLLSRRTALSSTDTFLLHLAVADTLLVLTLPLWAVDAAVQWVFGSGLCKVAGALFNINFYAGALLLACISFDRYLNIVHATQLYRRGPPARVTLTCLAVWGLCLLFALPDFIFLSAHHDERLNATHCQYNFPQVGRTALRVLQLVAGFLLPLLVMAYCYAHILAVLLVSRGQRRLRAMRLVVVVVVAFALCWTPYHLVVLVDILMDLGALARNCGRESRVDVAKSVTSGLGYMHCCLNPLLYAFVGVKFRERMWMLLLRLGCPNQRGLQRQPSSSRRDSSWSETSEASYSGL
The data set can be described thus: CXCR3 cAMP agonist assay (cAMP Hunter CHOK1 CXCR3 Gi cell line, forskolin-stimulated, HitHunter cAMP detection). Conditions: cAMP Hunter CHOK1 CXCR3 Gi cells, 20 μM forskolin, 30 minutes; read-out: Activity (CXCR3 cAMP agonist assay compound EC50). The data set is classed as cell-based. In short, it runs like this: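 CHOK1 cells expressing human CXCR3 with Gi coupling, 50,000/well in suspension in HBSS/10 mM HEPES/0.1% BSA pH 7.4, were co-treated with 20 μM forskolin and compound (12-point, 0-10 μM, 1% DMSO) for 30 min. cAMP was read by enzyme-complementation luminescence; CXCL11 dose response set maximum efficacy.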

A short description of data set [1]: Mouse pharmacokinetics after oral gavage, plasma drug concentration by LC-MS/MS (C57BL/6). To be noted: for Cmax / AUC(0-t): mouse, plasma; for AUC(0-t): read-out: AUC0-24. The data set is classed as in vivo, C57bl/6 mice. The protocol: Compounds were formulated in 5% DMSO/5% Tween20 in H2O, sonicated, vortexed, and put on stir plate overnight at a dose volume of 10 mL/kg. Balb/C (Jackson laboratories) or C57bl/6 (Taconic Biosciences) mice (8-9 weeks old) were acclimated to the colony for 3 days prior to dosing. Water and food were provided ab libitum. Compounds were administered by oral gavage. Groups of six animals received 3 to 4 bleeds per day with one terminal bleed. The time points were 30 min, 1 h, 2 h, 4 h, 6 h, 8 h, 24 h. Plasma was collected via centrifugation and analyzed for drug concentrations.
Preparation of Study Samples and Standards for Analysis by LC-MS/MS
50 μl of plasma was aliquoted into a 96 well deep-well polypropylene plate (2 mL) to which 5 μL of DMSO was added. For standards, 5 μl of test compound in DMSO at […] the standard concentration was added to 50 μl of blank matrix in a 96 well deep-well polypropylene plate. For example, for a 300 nM standard, the 10× DMSO concentration was 3 μM. Study samples that require dilution are diluted with the appropriate blank matrix. For example, for a 10× dilution, 5 μL of study sample is added to 45 μl of blank matrix. Protein was precipitated from study samples and standards with the addition of 150 μl of acetonitrile. After a clean plate map was placed firmly over the top of the 96-well plate, a bench top shaker was used for 1 min to ensure complete precipitation of protein. The precipitated protein was pelleted by centrifuging for 3,000 rpm for 10 min at 20° C. and then the clear supernatant was transferred to a clean 96-well plate and spun again under the same conditions in order to pellet any solid material that may have been transferred.
Analysis of Study Samples and Standards with LCMS with MRM Detection
An Agilent 1200 HPLC with binary pump and a Leap CTC with fast wash autosampler were used to introduce samples to the mass spectrometer.
The column used was a Phenomenex Luna C8 30×2 mm 5 μm with a security guard. Mass detection was performed by an Applied Biosystems 4000 Qtrap in MRM mode and ionization was achieved by positive electrospray with a source temperature of 500° C. The ion transitions, […] potential and collision energies were dependent on the specific analyte.
Prepared samples were usually analyzed in reverse chronological order with bracketing standard curves. Typically at least 6 standards were used for quantification with a percent accuracy of +/−15% for all standards except at the LLOQ where a percent accuracy of +/−20% was allowed. The concentration time profile was fit using a one compartment model for the applicable mode of dosing using Phoenix WinNonLin 6.4.

Broadly, the EC50 is the midpoint of the concentration-response curve. As usually defined, the Cmax is the peak of the concentration-time curve. For `Cc1cc(NC(=O)C2(NC(=O)[C@@H]3Cc4ccccc4CN3C(=O)CCC(=O)c3ccccc3)CCN(C)CC2)ccc1Cl` [Compound 6-4], the EC50 on CXCR3 fell in the range of 50 to 250 nM. Further, in data set [1] (C57BL/6, 10 mg/kg, male mice), the “apparent oral clearance (CL/F)” value came to 33 mL/min/kg, the Cmax stood at 810 nM and the AUC(0-t) turned out to be 8.3 µM·h.

As to `Cc1cc(NC(=O)[C@@H](NC(=O)[C@@H]2Cc3ccccc3CN2C(=O)CCC(=O)c2ccccc2)C2CCN(C(C)C)CC2)ccc1Cl` [Compound 8-2], the EC50 at CXCR3 is below 50 nM. Further, in data set [1] (C57BL/6, 10 mg/kg, male mice), the “apparent oral clearance (CL/F)” value is 112 mL/min/kg, the peak level (Cmax) was 710 nM and the AUC(0-t) stood at 2.3 µM·h.

With `NCC[C@H](NC(=O)[C@@H]1Cc2ccccc2CN1C(=O)CCC(=O)N1CCCC2(CCC2)C1)C(=O)Nc1ccc2c(c1)CCC2` [Compound 10-8], on CXCR3, the EC50 is below 50 nM. In data set [1] (C57BL/6, 60 mg/kg, female mice), the “apparent oral clearance (CL/F)” value is given as 431 mL/min/kg, the peak level (Cmax) was 1500 nM and the AUC(0-t) was 3.9 µM·h.

Consider `Cc1cc(NC(=O)[C@H](CCN)NC(=O)[C@@H]2Cc3ccccc3CN2C(=O)CCC(=O)N2CCCC(C)(C)C2)cc(C)c1Cl` [Compound 10-9], for which the EC50 at CXCR3 is below 50 nM. Also, in data set [1] (C57BL/6, 60 mg/kg, female mice), the “apparent oral clearance (CL/F)” value came to 132 mL/min/kg, the Cmax was 4300 nM and the AUC(0-t) was 12.4 µM·h.

For the compound `Cc1cc(NC(=O)[C@H](CCN)NC(=O)[C@@H]2Cc3ccccc3CN2C(=O)CCC(=O)N2CCCC(C)(C)C2)ccc1Cl` [Compound 12-88], the EC50 on CXCR3 was below 50 nM. For the same compound, in data set [1] (C57BL/6, 60 mg/kg, female mice), the “apparent oral clearance (CL/F)” value turned out to be 280 mL/min/kg, the Cmax stood at 3100 nM and the AUC(0-t) was 6 µM·h.

As to `Cc1cc(NC(=O)[C@H](CCN)NC(=O)[C@@H]2Cc3ccccc3CN2C(=O)CCC(=O)N2CCN(C)C[C@H]2C)ccc1Cl` [Compound 12-100], the EC50 on CXCR3 was below 50 nM. For the same compound, in data set [1] (C57BL/6, 60 mg/kg, female mice), the AUC0-24 entry was “BQL” and the peak level (Cmax) was 370 nM.

On to `Cc1cc(NC(=O)[C@H](CCN)NC(=O)[C@@H]2Cc3ccccc3CN2C(=O)CCC(=O)N(C)CC(C)(C)C)ccc1Cl` [Compound 12-114], for which the EC50 at CXCR3 is below 50 nM. For the same compound, in data set [1] (C57BL/6, 60 mg/kg, female mice), the “apparent oral clearance (CL/F)” value worked out at 823 mL/min/kg, the peak level (Cmax) was 600 nM and the AUC(0-t) was 2.1 µM·h.

As to `CN1CCN(C(=O)CCC(=O)N2Cc3ccccc3C[C@H]2C(=O)NC2(C(=O)Nc3ccc(Cl)c(Cl)c3F)CCNCC2)CC1` [Compound 12-138], the EC50 at CXCR3 was below 50 nM. In addition, in data set [1] (C57BL/6, 60 mg/kg, female mice), the “apparent oral clearance (CL/F)” value is 851 mL/min/kg, the highest level (Cmax) was 500 nM and the AUC(0-t) was 1.8 µM·h.

Take `NCC[C@H](NC(=O)[C@@H]1Cc2ccccc2CN1C(=O)CCC(=O)N1CCCC12CCC2)C(=O)Nc1ccc(Cl)c(Cl)c1F` [Compound 12-152]: the EC50 on CXCR3 is below 50 nM. Also, in data set [1] (C57BL/6, 60 mg/kg, female mice), the “apparent oral clearance (CL/F)” value stood at 190 mL/min/kg, the concentration peaked (Cmax) at 2800 nM and the AUC(0-t) was determined as 8.3 µM·h.

In the case of `Cc1ccc(C(F)(F)F)c(NC(=O)[C@H](CCN)NC(=O)[C@@H]2Cc3ccccc3CN2C(=O)CCC(=O)c2ccccc2)c1` [Compound 14-17], on CXCR3, the EC50 is below 50 nM. In addition, in data set [1] (C57BL/6, 60 mg/kg, female mice), the “apparent oral clearance (CL/F)” value is on record as 22 mL/min/kg, the Cmax was found to be 22000 nM and the AUC(0-t) was 78 µM·h.

(Values after patent publication US11040954B1, “CXCR3 receptor agonists” (RECEPTOS LLC, priority 2016, dated 2021).)
